{"source": "patent US20180235869A1", "about": "“METHODS AND COMPOSITIONS FOR SOFT ANTICHOLINERGIC ZWITTERIONS” (Bodor Laboratories, Inc., priority 2015, published 2018)", "origin": "cited, not measured here", "details": "solid oral form"}
{"molecule": "C[N+]1(C)CCC(OC(=O)C(O)(c2ccccc2)C2CCCC2)C1", "note": "(stereo not drawn) [glycopyrrolate]", "values": [{"measurement": "reducing drooling", "setting": "children", "result": "effective in reducing drooling"}, {"measurement": "dropped out of the study because of adverse effects", "setting": "children, most with cerebral palsy", "result": "over 20%"}, {"measurement": "children affected by adverse events", "setting": "most with cerebral palsy", "result": 69, "unit": "%"}]}
